The structures appear in SMILES notation.

The test system of assay [1] is SARS-CoV-2. Put plainly: microbe, parasite or virus in culture. The settings on record: Severe acute respiratory syndrome coronavirus 2, omicron TY38-873 BA.2, HEK-293T.
Assay [2] relates to SARS-CoV-2. Put plainly: microbe, parasite or virus in culture. The settings on record: Severe acute respiratory syndrome coronavirus 2, omicron TY38-873 BA.1, HEK-293T.

As for `CC(C)C[C@H](NC(=O)c1cc2c(F)cccc2[nH]1)C(=O)NN(C[C@H]1CCNC1=O)C(=O)[C@H](F)Cl`, the EC50 in the assay with SARS-CoV-2 [1] was determined as 131 nM; in the assay on SARS-CoV-2 [2], 58.7 nM.

In the case of `CC(C)C[C@H](NC(=O)c1cc2c(F)cccc2[nH]1)C(=O)NN(C[C@@H]1CCNC1=O)C(=O)[C@H](F)Cl`, the concentration for a half-maximal effect (EC50) turned out to be 17.1 nM in the assay on SARS-CoV-2 [1] and 9.01 nM with SARS-CoV-2 [2].

Take `CC(C)C[C@H](NC(=O)c1cc2c(F)cccc2[nH]1)C(=O)NN(C[C@@H]1CCNC1=O)C(=O)[C@@H](F)Cl`: the half-maximal effective concentration (EC50) with SARS-CoV-2 [1] was found to be 126 nM; in the assay on SARS-CoV-2 [2], 35.6 nM.

Take `COc1cccc2[nH]c(C(=O)N[C@@H](CC(C)C)C(=O)NN(C[C@H]3CCNC3=O)C(=O)[C@H](F)Cl)cc12`: the values for the concentration for a half-maximal effect (EC50) in the assay with SARS-CoV-2 [1] and with SARS-CoV-2 [2] were 121 nM and 58.8 nM, respectively.

Regarding `COc1cccc2[nH]c(C(=O)N[C@@H](CC(C)C)C(=O)NN(C[C@@H]3CCNC3=O)C(=O)[C@H](F)Cl)cc12`, the figures for the EC50 in the assay on SARS-CoV-2 [1] and in the assay with SARS-CoV-2 [2] were 18.3 nM and 10.1 nM, respectively.

For the compound `O=c1nc(NO)ccn1[C@@H]1O[C@H](CO)[C@@H](O)[C@H]1O` [N-HYDROXYCYTIDINE], the EC50 is 336 nM with SARS-CoV-2 [1] and 574 nM in the assay with SARS-CoV-2 [2].

For the compound `COc1cccc2[nH]c(C(=O)N[C@@H](CC(C)C)C(=O)N[C@@H](C[C@@H]3CCNC3=O)C(=O)CO)cc12` [PF-00835231], the EC50 with SARS-CoV-2 [1] came out at 832 nM; in the assay with SARS-CoV-2 [2], 775 nM.

Broadly, the EC50 is the concentration at which the effect is half-maximal. The low end stands for greater potency, the high end for weaker potency.

The record behind these values is ChEMBL document CHEMBL5108072, “Discovery of Chlorofluoroacetamide-Based Covalent Inhibitors for Severe Acute Respiratory Syndrome Coronavirus 2 3CL Protease” (J Med Chem, 2022).
